Source: PubChem BioAssay AID192 (DTP/NCI, 2004)
Where “and” joins values, the source holds several entries; their conditions need not be identical. Identical values can stand only once. Toxic doses and inconclusive results are not listed. How the source made its calls: active means survival T/C of 150% or more; inactive means T/C below 125% in these data. Peptide text beside a SMILES is read from it. * marks the point of attachment. Trt = c1ccc(C(c2ccccc2)(c2ccccc2)*)cc1; Cbz = O=C(OCc1ccccc1)*

Test system: BDF1 mice, B16 melanoma ip, median survival T/C
Assay: NCI In Vivo Anticancer Drug Screen. Data for tumor model B16 Melanoma (intraperitoneal) in B6D2F1 (BDF1) mice
Conditions: endpoint: median survival time, schedule: Q01DX009 (ip), higher = longer survival
Procedure, shortened: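 Mice with transplantable tumors; drug vs vehicle groups; endpoint survival or tumor size; value = T/C.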

[1] = dose: 200.0 mg/kg/injection, vehicle: saline
[2] = dose: 400.0 mg/kg/injection, vehicle: saline
[3] = dose: 6.25 mg/kg/injection, vehicle: Klucel (hydroxypropylcellulose) (HPC)
[4] = dose: 12.5 mg/kg/injection, vehicle: Klucel (hydroxypropylcellulose) (HPC)
[5] = dose: 25.0 mg/kg/injection, vehicle: Klucel (hydroxypropylcellulose) (HPC)
[6] = dose: 100.0 mg/kg/injection, vehicle: Klucel (hydroxypropylcellulose) (HPC)
[7] = dose: 200.0 mg/kg/injection, vehicle: Klucel (hydroxypropylcellulose) (HPC)
[8] = dose: 50.0 mg/kg/injection, vehicle: Klucel (hydroxypropylcellulose) (HPC)
[9] = dose: 2.5 mg/kg/injection, vehicle: saline
[10] = dose: 100.0 mg/kg/injection, vehicle: saline with Tween-80
[11] = dose: 200.0 mg/kg/injection, vehicle: saline with Tween-80
[12] = dose: 400.0 mg/kg/injection, vehicle: saline with Tween-80

Measured: T/C

COC1=C(C)C2CC(=O)OC3CC4C(C)CC(O)C(=O)C4(C)C(C1=O)C32C (configuration not stated)
inactive: dose: 0.5 mg/kg/injection, vehicle: saline + alcohol 110 % of control | dose: 1.0 mg/kg/injection, vehicle: saline + alcohol 107 % of control | dose: 2.0 mg/kg/injection, vehicle: saline + alcohol 99 % of control | dose: 4.0 mg/kg/injection, vehicle: saline + alcohol 87 % of control | dose: 8.0 mg/kg/injection, vehicle: saline + alcohol 99 % of control

CC(O)C(NC(=O)OC(C)(C)C)C(=O)O (configuration not stated)
inactive: [1] 105 % of control | [2] 93 % of control

CCNC(C)(C)C(SSSC(c1ccc(Cl)cc1)C(C)(C)NCC)c1ccc(Cl)cc1 (configuration not stated)
inactive: [3] 108 % of control | [4] 94 % of control | [5] 89 % of control and 94 % of control

CCCCCCCCCC(=O)CCC
inactive: [6] 100 % of control | [7] 111 % of control | dose: 400.0 mg/kg/injection, vehicle: Klucel (hydroxypropylcellulose) (HPC) 95 % of control

CCC1CC2CC(c3cc4c(cc3OC)N(C)C3C(O)(C(=O)OC)C(OC(C)=O)C5(CC)C=CCN6CCC43C65)c3[nH]c4ccccc4c3CCN(C1)C2 (configuration not stated)
inactive: dose: 0.25 mg/kg/injection, vehicle: Klucel (hydroxypropylcellulose) (HPC) 108 % of control | dose: 0.5 mg/kg/injection, vehicle: Klucel (hydroxypropylcellulose) (HPC) 94 % of control | dose: 1.0 mg/kg/injection, vehicle: Klucel (hydroxypropylcellulose) (HPC) 104 % of control | dose: 2.0 mg/kg/injection, vehicle: Klucel (hydroxypropylcellulose) (HPC) 111 % of control | dose: 4.0 mg/kg/injection, vehicle: Klucel (hydroxypropylcellulose) (HPC) 108 % of control | dose: 8.0 mg/kg/injection, vehicle: Klucel (hydroxypropylcellulose) (HPC) 104 % of control

COc1cccc(/C=N/NC(=O)c2ccccc2N2CCCC2)c1O
inactive: dose: 12.5 mg/kg/injection, vehicle: olive oil, sesame oil, peanut oil 89 % of control | dose: 50.0 mg/kg/injection, vehicle: olive oil, sesame oil, peanut oil 89 % of control | dose: 100.0 mg/kg/injection, vehicle: olive oil, sesame oil, peanut oil 87 % of control | dose: 200.0 mg/kg/injection, vehicle: olive oil, sesame oil, peanut oil 86 % of control | dose: 400.0 mg/kg/injection, vehicle: olive oil, sesame oil, peanut oil 96 % of control

C[n+]1cccc(NC(=O)c2ccc(NC(=O)c3ccc(C(=O)Nc4ccc(NC(=N)N)cc4)cc3)cc2)c1
inactive: dose: 0.9 mg/kg/injection, vehicle: saline 102 % of control | dose: 1.3 mg/kg/injection, vehicle: saline 94 % of control | dose: 2.0 mg/kg/injection, vehicle: saline 116 % of control

CCN(CC)CCCC(C)Nc1cc(/C=C/c2ccc(Cl)cc2)nc2cc(N(C)C)ccc12 (configuration not stated)
inactive: [4] 97 % of control

CC1(C)C2CCC1C(CO)C2 (configuration not stated)
inactive: [8] 100 % of control | [6] 103 % of control | [7] 90 % of control

C=CCN(CC=C)P(=O)(N1CC1C)N1CC1C (configuration not stated)
inactive: dose: 0.31 mg/kg/injection, vehicle: saline 109 % of control | dose: 0.63 mg/kg/injection, vehicle: saline 112 % of control | dose: 1.25 mg/kg/injection, vehicle: saline 122 % of control | [9] 99 % of control

CC(=O)NC(Cc1cc(I)c(O)c(I)c1)C(=O)O (configuration not stated)
inactive: [3] 103 % of control | [4] 108 % of control | [5] 96 % of control and 101 % of control | [8] 95 % of control | [6] 98 % of control | [7] 93 % of control

OCCN1CCN(CCCN2c3ccccc3Sc3ccc(C(F)(F)F)cc32)CC1
inactive: dose: 0.04 mg/kg/injection, vehicle: saline 91 % of control | dose: 0.09 mg/kg/injection, vehicle: saline 90 % of control and 106 % of control | dose: 0.19 mg/kg/injection, vehicle: saline 102 % of control and 93 % of control | dose: 0.39 mg/kg/injection, vehicle: saline 103 % of control and 109 % of control | dose: 0.78 mg/kg/injection, vehicle: saline 99 % of control and 91 % of control | dose: 1.56 mg/kg/injection, vehicle: saline 97 % of control

O=C(NC(CO)C(=O)OCc1ccccc1)OCc1ccccc1 (configuration not stated)
inactive: [10] 111 % of control | [11] 113 % of control | [12] 105 % of control

COc1ccc(C(=O)/C(Br)=C/C(=O)O)cc1
inactive: [9] 99 % of control | dose: 5.0 mg/kg/injection, vehicle: saline 96 % of control | dose: 10.0 mg/kg/injection, vehicle: saline 95 % of control and 98 % of control | dose: 20.0 mg/kg/injection, vehicle: saline 96 % of control | dose: 40.0 mg/kg/injection, vehicle: saline 95 % of control and 100 % of control

C/C=C/c1ccc(OC(C)=O)c(OC)c1
inactive: [10] 106 % of control | [11] 97 % of control | [12] 100 % of control

O=C(NC(Cc1ccccc1)C(=O)O)c1ccccc1 (configuration not stated)
inactive: dose: 50.0 mg/kg/injection, vehicle: saline with Tween-80 90 % of control | [10] 96 % of control

CCOC(=O)CCN1CC(C)OC(C)C1 (configuration not stated)
inactive: dose: 100.0 mg/kg/injection, vehicle: saline 118 % of control | [1] 115 % of control | [2] 118 % of control

Cc1c(O)ccc(=O)n1O
inactive: dose: 40.0 mg/kg/injection, vehicle: saline with Tween-80 97 % of control | dose: 80.0 mg/kg/injection, vehicle: saline with Tween-80 101 % of control and 102 % of control and 111 % of control | dose: 160.0 mg/kg/injection, vehicle: saline with Tween-80 94 % of control (2×) and 111 % of control | dose: 320.0 mg/kg/injection, vehicle: saline with Tween-80 97 % of control

C(=NCCN1CCOCC1)=NC1CCCCC1
inactive: dose: 3.13 mg/kg/injection, vehicle: saline with Tween-80 108 % of control | dose: 6.25 mg/kg/injection, vehicle: saline with Tween-80 110 % of control | dose: 12.5 mg/kg/injection, vehicle: saline with Tween-80 114 % of control

CN(C)CC/C=C1\c2ccccc2CSc2ccccc21
inactive: dose: 3.12 mg/kg/injection, vehicle: saline 90 % of control and 100 % of control | dose: 6.25 mg/kg/injection, vehicle: saline 89 % of control and 100 % of control | dose: 12.5 mg/kg/injection, vehicle: saline 97 % of control | dose: 25.0 mg/kg/injection, vehicle: saline 104 % of control | dose: 50.0 mg/kg/injection, vehicle: saline 95 % of control and 102 % of control

O=C(CCCN1CC=C(n2c(=O)[nH]c3ccccc32)CC1)c1ccc(F)cc1
inactive: dose: 3.12 mg/kg/injection, vehicle: Klucel (hydroxypropylcellulose) (HPC) 92 % of control | [3] 92 % of control and 95 % of control | [4] 98 % of control | [5] 90 % of control and 95 % of control | [8] 97 % of control | [6] 93 % of control | [7] 95 % of control

COC(=O)C(CSC(c1ccccc1)(c1ccccc1)c1ccccc1)NC(=O)C(CC(N)=O)NC(=O)OCc1ccccc1 (stereo not drawn) (Cbz-Asn-Cys(Trt)-OMe; configuration not given here)
inactive: dose: 12.5 mg/kg/injection, vehicle: distilled water + Tween-80 108 % of control and 110 % of control | dose: 25.0 mg/kg/injection, vehicle: distilled water + Tween-80 102 % of control and 117 % of control | dose: 50.0 mg/kg/injection, vehicle: distilled water + Tween-80 109 % of control | dose: 100.0 mg/kg/injection, vehicle: distilled water + Tween-80 113 % of control | dose: 200.0 mg/kg/injection, vehicle: distilled water + Tween-80 116 % of control
